In ChEMBL document CHEMBL1201862, “PubChem BioAssay data set” (2004):
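Cultured in 96-well plates, cells were exposed to test compound for 48 hours across five concentrations. The concentration for 50% growth inhibition is given as GI50.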 Activity calls are given as the source filed them. Rule as the data show it: active = GI50 up to about 1.1 µM and inactive = higher.

How the values were obtained:
Experiment in all cases: growth of human tumour cells (NCI), 48 h
HL-60 = system: HL-60
DLD-1 = system: DLD-1
SK-MEL-28 = system: SK-MEL-28
LOX IMVI = system: LOX IMVI
ACHN = system: ACHN
K562 = system: K562
SNB-19 = system: SNB-19
HT-29 = system: HT-29
RXF 631 = system: RXF 631
U-251 = system: U-251
OVCAR-3 = system: OVCAR-3
SNB-75 = system: SNB-75
SW-620 = system: SW-620
UACC-62 = system: UACC-62
786-0 = system: 786-0
KM12 = system: KM12
CCRF-CEM = system: CCRF-CEM
NCI-H23 = system: NCI-H23
CAKI-1 = system: CAKI-1
NCI-H226 = system: NCI-H226
SK-MEL-2 = system: SK-MEL-2
DMS-273 = system: DMS-273
Malme-3M = system: Malme-3M
IGROV-1 = system: IGROV-1
SNB-78 = system: SNB-78
XF498 = system: XF498
SF-295 = system: SF-295
EKVX = system: EKVX
M19-MEL = system: M19-MEL
M14 = system: M14
SF-268 = system: SF-268
HCT-15 = system: HCT-15
UACC-257 = system: UACC-257
A549 = system: A549
KM-20L2 = system: KM-20L2
HCT-116 = system: HCT-116
SR = system: SR
SK-OV-3 = system: SK-OV-3
HOP-92 = system: HOP-92
MOLT-4 = system: MOLT-4
SF-539 = system: SF-539
SN12C = system: SN12C
UO-31 = system: UO-31
RPMI-8226 = system: RPMI-8226
NCI-H522 = system: NCI-H522
TK-10 = system: TK-10
LXFL 529 = system: LXFL 529
A498 = system: A498
HOP-62 = system: HOP-62
NCI-H460 = system: NCI-H460
RXF 393 = system: RXF 393
OVCAR-8 = system: OVCAR-8
OVCAR-4 = system: OVCAR-4
OVCAR-5 = system: OVCAR-5
DMS-114 = system: DMS-114
HCC 2998 = system: HCC 2998
COLO 205 = system: COLO 205
SK-MEL-5 = system: SK-MEL-5

## CC(C)=CC(=O)CC(=O)C(=O)Nc1ccc(C)c(C)c1
HL-60
  GI50: > 100 µM (inactive)
DLD-1
  GI50: > 100 µM (inactive)
SK-MEL-28
  GI50: > 100 µM (inactive)
LOX IMVI
  GI50: > 100 µM (inactive)
ACHN
  GI50: > 100 µM (inactive)
K562
  GI50: > 100 µM (inactive)
SNB-19
  GI50: > 100 µM (inactive)
HT-29
  GI50: > 100 µM (inactive)
RXF 631
  GI50: > 100 µM (inactive)
U-251
  GI50: > 100 µM (inactive)
OVCAR-3
  GI50: > 100 µM (inactive)
SNB-75
  GI50: > 100 µM (inactive)
SW-620
  GI50: > 100 µM (inactive)
UACC-62
  GI50: > 100 µM (inactive)
786-0
  GI50: > 100 µM (inactive)
KM12
  GI50: > 100 µM (inactive)
CCRF-CEM
  GI50: > 100 µM (inactive)
NCI-H23
  GI50: > 100 µM (inactive)
CAKI-1
  GI50: > 100 µM (inactive)
NCI-H226
  GI50: > 100 µM (inactive)
SK-MEL-2
  GI50: > 100 µM (inactive)
DMS-273
  GI50: > 100 µM (inactive)
Malme-3M
  GI50: > 100 µM (inactive)
IGROV-1
  GI50: > 100 µM (inactive)
SNB-78
  GI50: > 100 µM (inactive)
XF498
  GI50: > 100 µM (inactive)
SF-295
  GI50: > 100 µM (inactive)
EKVX
  GI50: > 100 µM (inactive)
M19-MEL
  GI50: > 100 µM (inactive)
M14
  GI50: > 100 µM (inactive)
SF-268
  GI50: > 100 µM (inactive)
HCT-15
  GI50: > 100 µM
UACC-257
  GI50: > 100 µM (inactive)
A549
  GI50: > 100 µM (inactive)
KM-20L2
  GI50: > 100 µM (inactive)
HCT-116
  GI50: > 100 µM (inactive)
SR
  GI50: > 100 µM (inactive)
SK-OV-3
  GI50: > 100 µM (inactive)
HOP-92
  GI50: > 100 µM (inactive)
MOLT-4
  GI50: > 100 µM (inactive)
SF-539
  GI50: > 100 µM (inactive)
SN12C
  GI50: > 100 µM (inactive)
UO-31
  GI50: > 100 µM (inactive)
RPMI-8226
  GI50: > 100 µM (inactive)
NCI-H522
  GI50: > 100 µM (inactive)
TK-10
  GI50: > 100 µM (inactive)
LXFL 529
  GI50: > 100 µM (inactive)

## CNC1=Nc2ccc(Cl)cc2C(c2ccccc2)=NN1C
A498
  GI50: 91.2 µM (inactive)
HL-60
  GI50: 46 µM (inactive)
DLD-1
  GI50: > 100 µM (inactive)
SK-MEL-28
  GI50: > 100 µM (inactive)
LOX IMVI
  GI50: 60.4 µM (inactive)
ACHN
  GI50: > 100 µM (inactive)
K562
  GI50: 51.2 µM (inactive)
SNB-19
  GI50: > 100 µM (inactive)
HT-29
  GI50: 56.5 µM (inactive)
RXF 631
  GI50: 74 µM (inactive)
U-251
  GI50: > 100 µM (inactive)
OVCAR-3
  GI50: 45.4 µM (inactive)
SNB-75
  GI50: 23.4 µM (inactive)
SW-620
  GI50: > 100 µM (inactive)
UACC-62
  GI50: > 100 µM (inactive)
786-0
  GI50: 54.7 µM (inactive)
HOP-62
  GI50: > 100 µM (inactive)
NCI-H460
  GI50: > 100 µM (inactive)
KM12
  GI50: > 100 µM (inactive)
CCRF-CEM
  GI50: 83.8 µM (inactive)
RXF 393
  GI50: 17.5 µM (inactive)
NCI-H23
  GI50: > 100 µM (inactive)
OVCAR-8
  GI50: > 100 µM (inactive)
OVCAR-4
  GI50: > 100 µM (inactive)
CAKI-1
  GI50: 28.5 µM (inactive)
NCI-H226
  GI50: > 100 µM (inactive)
OVCAR-5
  GI50: > 100 µM (inactive)
SK-MEL-2
  GI50: 73.5 µM (inactive)
DMS-273
  GI50: > 100 µM (inactive)
Malme-3M
  GI50: 42.9 µM (inactive)
IGROV-1
  GI50: > 100 µM (inactive)
SNB-78
  GI50: > 100 µM (inactive)
XF498
  GI50: 31.6 µM (inactive)
SF-295
  GI50: 84.7 µM (inactive)
DMS-114
  GI50: 53.2 µM (inactive)
EKVX
  GI50: > 100 µM (inactive)
M19-MEL
  GI50: > 100 µM (inactive)
M14
  GI50: > 100 µM (inactive)
SF-268
  GI50: 57.9 µM (inactive)
HCC 2998
  GI50: 24.9 µM (inactive)
HCT-15
  GI50: > 100 µM
UACC-257
  GI50: 83 µM (inactive)
A549
  GI50: > 100 µM (inactive)
KM-20L2
  GI50: > 100 µM (inactive)
HCT-116
  GI50: 66.7 µM (inactive)
HOP-92
  GI50: 27.6 µM (inactive)
MOLT-4
  GI50: 36.2 µM (inactive)
SF-539
  GI50: > 100 µM (inactive)
SN12C
  GI50: > 100 µM (inactive)
UO-31
  GI50: 35.5 µM (inactive)
COLO 205
  GI50: > 100 µM (inactive)
RPMI-8226
  GI50: 31.3 µM (inactive)
SK-MEL-5
  GI50: 49.1 µM (inactive)
NCI-H522
  GI50: > 100 µM (inactive)
TK-10
  GI50: 84.3 µM (inactive)
LXFL 529
  GI50: > 100 µM (inactive)
